Assay results from patent US6391261B1, “Device for detecting analytes related to sample pH” (Lifepoint, Inc., priority 2000, dated 2002).

Test system: cocaine antibody
Test: Cross-reactivity of the antibody used in the lateral flow competitive immunoassay for cocaine
Format: binding
Conditions: dye labeled cocaine antibody of the saliva test cassette
Excerpt: Each rapid oral fluid test cassette 70 included in this test kit consists of a lateral flow assay strip, a color intensity chart 78, a pH test section 82, and a pH chart 80. The lateral flow assay strip consists of color dye labeled cocaine antibody and a nitrocellulose membrane coated with cocaine-Bovine Serum […] (“BSA”) conjugate. When a saliva sample is applied to the sample section of the cassette, the saliva sample will migrate by capillary movement to the dye-antibody zone and the cocaine-BSA membrane zone. If the sample tested is negative, the dye-antibody will bind with the membrane cocaine-BSA conjugate to form a red band on the membrane.
If the sample tested contains cocaine, cocaine in the sample will bind with the dye-antibody, and thus the binding between the dye-antibody and the membrane cocaine-BSA is prevented. The unbound dye-antibody will migrate away from the membrane to an absorbent pad. As a result, the intensity of the color band appearing on the membrane is inversely proportional to the concentration of cocaine in the saliva sample. A semi-quantitative result of cocaine concentration in the saliva sample is achieved by comparing the color band with a color intensity chart.

| Molecule | cross-reactivity of the assay antibody as compared with cocaine |
| --- | --- |
| COc1ccc2c3c1O[C@H]1[C@@H](O)C=C[C@H]4[C@@H](C2)N(C)CC[C@@]341 [codeine] | No significant cross-reactivity |
| tetrahydrocannabinols | No significant cross-reactivity |
| CN1CC[C@]23c4c5ccc(O)c4O[C@H]2[C@@H](O)C=C[C@H]3[C@H]1C5 [morphine] | No significant cross-reactivity |
| CN[C@@H](C)Cc1ccccc1 [methamphetamine] | No significant cross-reactivity |
| CN1[C@H]2CC[C@@H]1[C@@H](C(=O)O)[C@@H](OC(=O)c1ccccc1)C2 [benzoylecgonine] | less than 5% |
| c1ccc(C2(N3CCCCC3)CCCCC2)cc1 [phencyclidine] | No significant cross-reactivity |
| CCO [ethanol] | No significant cross-reactivity |
